Assay results as given in patent US10654848B1, “Neutrophil inflammation inhibitor and uses thereof” (Chang Gung University of Science and Technology, priority 2018, dated 2020).

How the values were obtained:
human neutrophils = test: Elastase release in fMLF/CB-activated human neutrophils (MeO-Suc-Ala-Ala-Pro-Val-p-nitroanilide substrate); format: cell-based; details: Neutrophil, neutrophils in response to fMLF, Table 2, read-out: IC50 for suppressing elastase release
Procedure: Human neutrophils were obtained in lipopolysaccharide-free conditions by means of dextran sedimentation and Ficoll centrifugation.
Methoxysuccinyl-Ala-Ala-Pro-Val-p-nitroanilide was employed as the elastase substrate for the determination of elastase release. Briefly, after supplementation with Methoxysuccinyl-Ala-Ala-Pro-Val-p-nitroanilide (100 μM), neutrophils (6×10^5/mL) were equilibrated at 37° C. for 2 min and incubated with a candidate compound at various concentrations for 5 min. Cells were then activated with fMLF (0.1 μM) for 10 min in the pre-process of CB (0.5 μg/mL) for 3 min, and changes in absorbance at 405 nm were continuously monitored to evaluate elastase release. Results are expressed as the percentage of elastase release in the drug-free control group, DMSO.

BALB/c mice [1] = test: LPS-induced acute lung injury (ALI) model in mice; format: in vivo, mouse; details: 20 mg/Kg intravenous 1 hr before intratracheal LPS, 5 hrs
Procedure: (§1) Male BALB/c mice aged 7-8 weeks were purchased from BioLASCO (Taipei, Taiwan) and maintained in a room with 12 hr light/dark cycles. Standard laboratory chow and water were available ad libitum. All animal experimental procedures were performed in accordance with guidelines and approved by the Institutional Animal Care and Use Committee of Chang Gung University.
Mice were pre-treated with a candidate compound (e.g., HKI-4971), which was dissolved in 50 μl saline solution containing 10% DMSO and 20% Kolliphor EL (Sigma-Aldrich, USA), by intravenous injection. […]
Lung tissues were homogenized in PBS (50 Mm, pH 6.0) containing 0.5% (w/v) hexadecyltrimethylammonium bromide (HETAB) (Sigma-Aldrich, USA) by using the MagNA Lyser Instrument (Roche, Germany), and was further centrifuged at 12,000×g for 20 min at 4° C. to remove the insoluble material. The peroxidase activity was measured as the oxidation of o-Dianisidine dihydrochloride (Sigma-Aldrich, USA). […] The absorption was determined spectrophotometrically at 405 nm. […]
In this example, the Gram-negative bacterial endotoxin LPS induced ALI in mice was employed to mimic ARDS in human, and the effect of HKI-4971 was evaluated. […]

BALB/c mice [2] = test: Imiquimod-induced psoriasis-like skin inflammation in mice; format: in vivo, mouse; details: 20 mg/kg intraperitoneal, 30 min before 5% IMQ cream, daily for 7 days
Procedure: as §1
Male BALB/c mice aged 7-8 weeks were used for the development of the imiquimod-induced psoriatic-like plaque model. The dorsal skin of the mice were shaved and received a daily topical dose of 62.5 mg of 5% imiquimod (IMQ) cream (Aldara, MEDA Pharma, Sweden) with or without a test compound (e.g., HKI-4971) treatment by intraperitoneal injection for 7 consecutive days.
Tissue samples were fixed in 10% neutral buffered formalin and embedding in paraffin blocks. Sections of the samples were prepared at 5 μm thickness and stained with hematoxylin and eosin (H&E). For immunohistochemistry staining, the sections were incubated with primary antibodies against Ly6g, MPO, and ki67 then the secondary antibody was applied for the detection of the primary antibody according to the manufacturer's instructions of the SuperPicture Polymer Detection Kit (Thermo Fisher, USA). Finally, the section slides were subsequently stained with DAB chromogen and counterstained with hematoxylin. […]

BALB/c mice [3] = test: Liver and kidney function (ALT, AST, BUN, creatinine) in blood of imiquimod-induced mice; format: in vivo, mouse; details: blood samples, 20 mg/kg intraperitoneal, alone or with IMQ, 7 days; FIG. 3 (n=3)
Procedure: In this example, the effect of HKI-4971 (or compound 13) on the development of psoriasis was investigated using the well-established psoriasis animal model, in which imiquimod (IMQ) was used to induce psoriasis-like skin inflammation. Briefly, BALB/c mice are pre-treated by intraperitoneal injection of HKI-4971 (20 mg/kg) for 30 min before 5% IMQ cream was topically administered onto the back of the mice every day for 7 days. Then, skin samples taken from these animals were subjected to microscopy examination and immunohistochemistry staining, while blood samples were subjected to analysis for liver and kidney functions. Results are depicted in FIGS. 1 to 3.
Blood samples taken from IMQ- or IMQ+HKI-4971 treated animals were analyzed for the levels of alanine aminotransferase and aspartate transaminase, which were used as indicators for assessing liver function; and the levels of blood […] nitrogen (BUN) and creatinine (CRE), which were used as indicators for assessing the kidney function. Results are illustrated in FIG. 3.

With `Cn1nc(N)c2c(Nc3ccc(O)cc3)nc3ccccc3c21` [Compound 13, 4-(4-Hydroxyanilino)-1-methyl-1H-pyrazolo[4,3-c]quinolin-3-amine] the IC50 (human neutrophils) was 32 ± 17 nM, the “MPO activity in lung tissues” value (BALB/c mice [1]; FIG. 4(A) (n=3)) was “suppressed” and the “LPS-induced neutrophil infiltration and lung injury (H&E, Ly6g and MPO staining of lung sections)” value (BALB/c mice [1]; FIG. 4(B)) was “significantly alleviated”. For the same molecule, the “Severity or progression of IMQ-induced psoriasis” value (BALB/c mice [2]; FIG. 1) was “reduce the severity or progression”, the “Immunostaining of skin: markers for cell proliferation (ki-67) and for neutrophils (Ly6g and MPO)” value (BALB/c mice [2]; FIG. 2) was “reduced” and the “Liver function (alanine aminotransferase, aspartate transaminase) and kidney function (BUN, creatinine)” value (BALB/c mice [3]) was “did not result in significant damage”.
